For assay [1], the target named is GDP-bound KRAS protein (aa 1-169), containing both G12C and C118A amino acid substitutions (Homo sapiens, UniProt P01116, C118A/G12C). As to the kind of experiment: Coupled nucleotide exchange assay (SOS-mediated, AlphaScreen). Type of assay: biochemical. As to conditions: 5 min compound pre-incubation.
The test system of assay [2] is Phosphorylation of ERK1/2 in MIA PaCa-2 cells. As to the kind of experiment: Phospho-ERK1/2 MSD assay in MIA PaCa-2 cells. Type of assay: cell-based. As to conditions: Homo sapiens, MIA PaCa-2, 2 h, read-out: p-ERK IC50 (2 h; MIA PaCa-2), 2 h compound treatment. Put shortly: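 MSD electrochemiluminescence readout of phospho-ERK1/2 in whole-cell lysates, IC50 by 4-parameter logistic fit. Compound titrations were applied for 2 or 4 h at 37 °C, 5% CO2, followed by 10 ng/mL EGF stimulation for 10 min before lysis.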

Sequence of GDP-bound KRAS protein (aa 1-169), containing both G12C and C118A amino acid substitutions (P01116 1-169 isoform P01116-2 G12C/C118A): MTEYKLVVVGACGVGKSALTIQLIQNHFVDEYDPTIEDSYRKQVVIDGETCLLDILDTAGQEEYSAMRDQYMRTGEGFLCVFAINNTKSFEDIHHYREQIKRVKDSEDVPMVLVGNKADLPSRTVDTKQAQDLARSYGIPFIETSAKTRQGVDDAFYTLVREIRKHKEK

With `C=CC(=O)N1CCN(c2nc(=O)n(-c3n[nH]cc3C(C)C)c3nc(-c4ccccc4F)c(Cl)cc23)[C@@H](C)C1` [Example 54-111, 6-chloro-7-(2-fluorophenyl)-4-((2S)-2-methyl-4-(2-propenoyl)-1-piperazinyl)-1-(4-(2-propanyl)-1H-pyrazol-3-yl)pyrido[2,3-d]pyrimidin-2(1H)-one], in assay [1], the “Coupled exchange IC50 (5 min)” value is given as 0.417 | nda μM. Besides, the half-inhibitory concentration (IC50) in assay [2] came to 791 nM.

For the compound `C=CC(=O)N1CCN(c2nc(=O)n(-c3cccnc3C(C)(C)C)c3nc(-c4ccccc4F)c(Cl)cc23)[C@@H](C)C1` [Example 54-112, 6-chloro-7-(2-fluorophenyl)-1-(2-(2-methyl-2-propanyl)-3-pyridinyl)-4-((2S)-2-methyl-4-(2-propenoyl)-1-piperazinyl) pyrido[2,3-d]pyrimidin-2(1H)-one], the “Coupled exchange IC50 (5 min)” value in assay [1] is given as 0.084 | nda μM. For the same compound, the IC50 in assay [2] was found to be 222 nM.

For `C=CC(=O)N1CCN(c2nc(=O)n(-c3c(C)noc3C(C)C)c3nc(-c4c(O)cccc4F)c(Cl)cc23)[C@@H](C)C1` [Example 55-1, 6-Chloro-7-(2-fluoro-6-hydroxyphenyl)-1-(3-methyl-5-(2-propanyl)-1,2-oxazol-4-yl)-4-((2S)-2-methyl-4-(2-propenoyl)-1-piperazinyl)pyrido[2,3-d]pyrimidin-2(1H)-one], in assay [1], the “Coupled exchange IC50 (5 min)” value was 0.124 | nda μM. For the same compound, the half-inhibitory concentration (IC50) in assay [2] amounted to 226 nM.

Turning to `C=CC(=O)N1CCN(c2nc(=O)n(-c3c(OC)ncnc3OC)c3nc(-c4c(O)cccc4F)c(Cl)cc23)[C@@H](C)C1` [Example 55-3, 6-chloro-1-(4,6-dimethoxy-5-pyrimidinyl)-7-(2-fluoro-6-hydroxyphenyl)-4-((2S)-methyl-4-(2-propenoyl)-1-piperazinyl)pyrido[2,3-d]pyrimidin-2(1H)-one], the “Coupled exchange IC50 (5 min)” value in assay [1] is on record as 0.966 | nda μM. Besides, the IC50 in assay [2] came to 918 nM.

With `C=CC(=O)N1CCN(c2nc(=O)n(-c3c(C)nc(C)nc3C(C)C)c3nc(-c4c(O)cccc4F)c(Cl)cc23)[C@@H](C)C1` [Example 55-4, 6-chloro-1-(2,4-dimethyl-6-(2-propanyl)-5-pyrimidinyl)-7-(2-fluoro-6-hydroxyphenyl)-4-((2S)-2-methyl-4-(2-propenoyl)-1-piperazinyl)pyrido[2,3-d]pyrimidin-2(1H)-one], the “Coupled exchange IC50 (5 min)” value in assay [1] is 0.057 | nda μM. Further, in assay [2], the concentration for half-maximal inhibition (IC50) was determined as 80 nM.

Regarding `C=CC(=O)N1CCN(c2nc(=O)n(-c3c(C(C)C)nc(C)nc3C(C)C)c3nc(-c4ccccc4F)c(Cl)cc23)[C@@H](C)C1` [Example 55-5, 6-chloro-7-(2-fluorophenyl)-1-(2-methyl-4,6-di(2-propanyl)-5-pyrimidinyl)-4-((2S)-2-methyl-4-(2-propenoyl)-1-piperazinyl)pyrido[2,3-d]pyrimidin-2(1H)-one], the “Coupled exchange IC50 (5 min)” value in assay [1] is 0.045 | nda μM. Besides, the half-inhibitory concentration (IC50) in assay [2] came out at 31 nM.

`C=CC(=O)N1CCN(c2nc(=O)n(-c3ccccc3CC(F)(F)F)c3nc(-c4c(O)cccc4F)c(Cl)cc23)[C@@H](C)C1` [Example 55-6, 6-chloro-7-(2-fluoro-6-hydroxyphenyl)-4-((2S)-2-methyl-4-(2-propenoyl)-1-piperazinyl)-1-(2-(2,2,2-trifluoroethyl)phenyl)pyrido[2,3-d]pyrimidin-2(1H)-one]: the “Coupled exchange IC50 (5 min)” value in assay [1] is listed as 0.318 | nda μM. Further, in assay [2], the IC50 stood at 317 nM.

As to `C=CC(=O)N1CCN(c2nc(=O)n(-c3c(C)cccc3CC)c3nc(-c4ccccc4F)c(Cl)cc23)[C@@H](C)C1` [Example 55-9, 6-chloro-1-(2-ethyl-6-methylphenyl)-7-(2-fluorophenyl)-4-((2S)-2-methyl-4-(2-propenoyl)-1-piperazinyl)pyrido[2,3-d]pyrimidin-2(1H)-one], the “Coupled exchange IC50 (5 min)” value in assay [1] is 0.24 | nda μM. Moreover, the half-inhibitory concentration (IC50) in assay [2] was 214 nM.
